From patent US10266603B2, “Targeted therapy to restore radioactive iodine transport in thyroid cancer” (The Governors of the University of Alberta, priority 2014, dated 2019)

Experiments:
Assay type in all cases: cell-based, human
[1] = tested on: patient derived papillary thyroid carcinoma primary tumors; test: iodide transport in patient derived primary tumors; details: patient derived PTC primary tumors; 72 hour period
Excerpt: FIG. 9. In the effect of PDGFRA blockade using small molecule inhibitors on iodide transport in patient derived papillary thyroid carcinoma primary tumors.

BCPAP cell line = test: wound-healing assay (cellular migration), BCPAP; details: BCPAP cell line expressing alpha subunit of PDGFR; after 24 and 42 hours; versus no crenolanib
Procedure: (§1) FIG. 8. The effect of PDGFRA blockade using a specific PDGFRA small molecule inhibitor on cellular migration using the wound-healing assay. In two separate cell lines that express the alpha subunit of PDGFR as shown in (A) 8305C cell line and BCPAP cell line in (B), the addition of crenolanib as a selective alpha inhibitor means that the percentage of open wound left after 24 and 42 hours is much higher because of slow the migration of the cells across the gap and this is highly significant. This illustrates the role of PDGFRA in mediating a more aggressive, dedifferentiated behavior for these tumors.

8305C cell line = test: wound-healing assay (cellular migration), 8305C; details: 8305C cell line expressing alpha subunit of PDGFR; after 24 and 42 hours; versus no crenolanib
Procedure: as §1

Structure (SMILES): CC1(COc2ccc3c(c2)ncn3-c2ccc3cccc(N4CCC(N)CC4)c3n2)COC1 [crenolanib]
- iodide uptake [1]: significant increase in iodide uptake
- percentage of open wound left (BCPAP cell line): much higher
- percentage of open wound left (8305C cell line): much higher
